# In patent US20030032774A1, “Novel opioid peptides for the treatment of pain” (priority 1994, published 2003):
# Read-outs that look alike come from different tables or passages of the source. Square brackets hold non-standard residues; d marks the D form. Peptide text beside a SMILES is read from it. * marks the point of attachment. Phe(4-NO2) = N[C@@H](Cc1ccc([N+](=O)[O-])cc1)C(=O)O; Phe(4-N3) = [N-]=[N+]=Nc1ccc(C[C@H](N)C(=O)O)cc1; 1Nal = N[C@@H](Cc1cccc2ccccc12)C(=O)O; 2Nal = N[C@@H](Cc1ccc2ccccc2c1)C(=O)O; NMeF = CN[C@@H](Cc1ccccc1)C(=O)O; Tic = O=C(O)[C@@H]1Cc2ccccc2CN1; dNle = CCCC[C@@H](N)C(=O)O; dAbu = CC[C@@H](N)C(=O)O; Ac5c = NC1(C(=O)O)CCCC1; Aib = CC(C)(N)C(=O)O; Bn = c1ccc(C*)cc1
# Assays:
# μ receptor = molecular target: T1, μ receptor (Rattus norvegicus, UniProt P33535); experiment: Radioligand binding assay, μ opioid receptor ((3H)-DAMGO, brain membranes)
# T1 construct: the brains (minus the cerebellum) were removed, placed in ice-cold saline solution, and then homogenized; from tissue; host or cells: rat brain (minus cerebellum) membranes
# T1 sequence (P33535 whole entry): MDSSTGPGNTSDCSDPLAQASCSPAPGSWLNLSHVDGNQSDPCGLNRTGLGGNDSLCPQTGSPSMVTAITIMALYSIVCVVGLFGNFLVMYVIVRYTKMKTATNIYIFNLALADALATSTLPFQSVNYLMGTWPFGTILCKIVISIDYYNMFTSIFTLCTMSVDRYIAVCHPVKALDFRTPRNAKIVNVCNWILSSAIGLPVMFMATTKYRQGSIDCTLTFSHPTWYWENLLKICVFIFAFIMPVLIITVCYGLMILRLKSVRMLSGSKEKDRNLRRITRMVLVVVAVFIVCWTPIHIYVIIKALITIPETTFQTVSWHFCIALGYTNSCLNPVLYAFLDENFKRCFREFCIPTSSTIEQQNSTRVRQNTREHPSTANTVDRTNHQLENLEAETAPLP
# Method: PBQ (phenyl-ρ-benzoquinone) induced writhing in mice is an assessment of both central and peripheral analgesia (see Sigmund, et al., Proc. Soc. Exp. Biol. Med. 95:729 (1957)). Central analgesia is determined by the inhibition of a hot-plate response in mice (see, Wolfe, et al., J. Pharmacol. Exp. Ther. 80:300 (1944)). Assays measuring opioid receptor binding affinities for μ and δ receptors as well as the GPI assay were determined through experimental protocol set out in Schiller et al. (Biophys. Res. Commun. 85:1322 (1975)). The references by Sigmund, et al., Wolfe, et al., and Schiller, et al. are each hereby incorporated by reference.
# Male Sprague-Dawley rats weighing between 350-450 g were sacrificed by inhalation of CO2. The rats were decapitated and the brains (minus the cerebellum) were removed, placed in ice-cold saline solution, and then homogenized in ice-cold 50 mM Tris buffer pH 7.4 (10 ml/brain). Membranes were centrifuged at 14000 rpm for 30 min. at 4° C. The pellets were re-suspended in approximately 6 ml/brain of ice-cold Tris buffer 50 mM pH 7.4 and stored at −78° C. until ready for use. Protein quantification of the brain homogenate was conducted according to protein assay kit purchased (Bio-Rad).
# (^3H)-DAMGO and (^3H)-DAGLE were used as radioligands for the μ and δ receptors, respectively. Radioligand 50 μl, membranes 100 μl, and serially diluted test compound were incubated for 1 hr at 22° C. Nonspecific binding was determined using a 500 fold excess of unlabeled ligand in the presence of tracer and membranes. Free ligand was separated from bound by filtration through Whatman GF/B paper (presoaked in polyethylenimine 1% aqueous solution) and rinsing with ice-cold 50 mM Tris pH 7.4 using a Brandel cell harvester. The filters were dried and radioactivity was counted in a 24 well microplate in the presence of 500 μl scintillant per well. Radioactivity was measured using a Wallace 1450 Microbeta counter. Ki's for the various compounds were determined from the IC50 according to the Cheng and Prusoff equation.
# μ receptors = μ receptors (Cavia porcellus, UniProt P97266); experiment: Guinea Pig Ileum (GPI) assay, longitudinal muscle preparation
# Chain of μ receptors (P97266 whole entry, looked up): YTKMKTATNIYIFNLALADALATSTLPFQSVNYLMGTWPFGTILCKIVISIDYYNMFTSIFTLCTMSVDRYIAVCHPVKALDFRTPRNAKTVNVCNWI
# Method: The activity of the peptide compounds on μ receptors was determined using the Guinea Pig Ileum (GPI) assay (longitudinal muscle preparation) according to the procedures described in Schiller et al., Biophys. Res. Commun. 85:1322 (1975).
# [1] = test system: PBQ induced writhing in mice; experiment: PBQ (phenylquinone)-induced writhing assay; type: in vivo, mouse; conditions: mouse s.c.
# Method: The test was performed on CD #1 male mice weighing between 18 and 22 g. Mice were weighed, marked and then injected, by the intraperitoneal route, with 0.3 ml/20 g by weight of a solution of phenylquinone at 0.02%. The contortions which appeared during a 15 minute time period following the injection were counted. The phenylquinone was injected at time intervals of 5, 20 or 60 minutes after administration of the compound (or medium, or standard) by subcutaneous route. It was injected at time intervals of 60 minutes after the administration of the compound (or medium, or standard) by oral route;
# The 0.02% phenylquinone solution was prepared as follows: 20 mg of phenylquinone was dissolved in 5 ml ethanol 90% (Sigma). The dissolved phenylquinone was slowly added to 95 ml of distilled water continuously shaken and preheated (not boiled). The phenylquinone solution was, at all times protected from light and a new solution was prepared every day for the test. Each group usually contained 10 mice. If an antagonist, such as naloxone, was used, it was administered 20 minutes before the compound (or the medium, or the standard) by the intraperitoneal route.
# Writhing assays were performed on CD#1 male mice weighing between […]. Assays were carried out as described in Example 3 and results are summarized below in Table 2.
Molecule,"Ki (μ receptor; Ki^μ, Table 1) [µM]",ED50(PBQ) ([1]; 20 min post administration) [mg/kg],other results
"NC(=O)[C@H](Cc1ccccc1)NC(=O)[C@H](Cc1ccccc1)NC(=O)[C@@H](Cc1ccccc1)NC(=O)[C@@H](N)Cc1ccc(O)cc1 [BCH753, H-Tyr-D-Phe-Phe-Phe-NH2] (H-Y[dF]FF-NH2)",0.00363,>20,"IC50 (μ receptors; GPI(IC50), Table 1): 0.247 µM"
"CC(C)(NC(=O)[C@@H](N)Cc1ccc(O)cc1)C(=O)N[C@@H](Cc1ccccc1)C(=O)N[C@@H](Cc1ccccc1)C(N)=O [BCH754, H-Tyr-Aib-Phe-Phe-NH2] (H-Y[Aib]FF-NH2)",,>20,
"CCCC[C@@H](NC(=O)[C@@H](N)Cc1ccc(O)cc1)C(=O)N[C@@H](Cc1ccccc1)C(=O)N[C@@H](Cc1ccccc1)C(N)=O [BCH755, H-Tyr-D-Nle-Phe-Phe-NH2] (H-Y[dNle]FF-NH2)",0.000968,,"IC50 (μ receptors; GPI(IC50), Table 1): 0.015 µM; ED50(PBQ) ([1]; 5 min.): 2.5 (5 min.) mg/kg"
"C[C@@H](NC(=O)[C@@H](N)Cc1ccc(O)cc1)C(=O)N[C@@H](Cc1ccc2ccccc2c1)C(=O)N[C@@H](Cc1cccc2ccccc12)C(N)=O [BCH758, H-Tyr-D-Ala-2′-Nal-1′-Nal-NH2] (H-Y[dA][2Nal][1Nal]-NH2)",0.00561,>20,
"C[C@@H](NC(=O)[C@@H](N)Cc1ccc(O)cc1)C(=O)N[C@H](Cc1ccccc1)C(=O)N[C@@H](Cc1ccccc1)C(N)=O [BCH1775, H-Tyr-D-Ala-D-Phe-Phe-NH2] (H-Y[dA][dF]F-NH2)",,,Ki (μ receptor): 0.026 µM; IC50 (μ receptors): 0.925 µM
"C[C@@H](NC(=O)[C@@H](N)Cc1ccc(O)cc1)C(=O)N[C@@H](Cc1ccccc1)C(=O)N[C@@H](Cc1ccc(N=[N+]=[N-])cc1)C(N)=O [BCH1778, H-Tyr-D-Ala-Phe-Phe(4-N3)—NH2] (H-Y[dA]F[Phe(4-N3)]-NH2)",0.00149,,"IC50 (μ receptors; GPI(IC50), Table 1): 0.05 µM"
"C[C@@H](NC(=O)[C@@H](N)Cc1ccc(O)cc1)C(=O)N[C@@H](Cc1ccc([N+](=O)[O-])cc1)C(=O)N[C@@H](Cc1ccccc1)C(N)=O [BCH1779, H-Tyr-D-Ala-Phe(4-NO2)-Phe-NH2] (H-Y[dA][Phe(4-NO2)]F-NH2)",0.0568,,"IC50 (μ receptors; GPI(IC50), Table 1): 0.077 µM"
"C[C@@H](NC(=O)[C@@H](N)Cc1ccc(O)cc1)C(=O)N[C@@H](Cc1ccccc1)C(=O)N1Cc2ccccc2C[C@H]1C(N)=O [BCH1780, H-Tyr-D-Ala-Phe-Tic-NH2] (H-Y[dA]F[Tic]-NH2)",0.0127,,
"C[C@@H](NC(=O)[C@@H](N)Cc1ccc(O)cc1)C(=O)N[C@@H](Cc1ccccc1)C(=O)N(C)[C@@H](Cc1ccccc1)C(N)=O [BCH1781, H-Tyr-D-Ala-Phe-Phe(NMe)-NH2] (H-Y[dA]F[NMeF]-NH2)",0.0226,,"IC50 (μ receptors; GPI(IC50), Table 1): 0.241 µM"
"C[C@@H](NC(=O)[C@@H](N)Cc1ccc(O)cc1)C(=O)N[C@@H](Cc1cccc2ccccc12)C(=O)N[C@@H](Cc1cccc2ccccc12)C(N)=O [BCH1783, H-Tyr-D-Ala-1′-Nal-1′-Nal-NH2] (H-Y[dA][1Nal][1Nal]-NH2)",0.00288,>20,
"C[C@@H](NC(=O)[C@@H](N)Cc1ccc(O)cc1)C(=O)N[C@@H](Cc1c[nH]c2ccccc12)C(=O)N[C@@H](Cc1c[nH]c2ccccc12)C(N)=O [BCH1786, H-Tyr-D-Ala-Trp-Trp-NH2] (H-Y[dA]WW-NH2)",0.000833,10,
"CCCC[C@@H](NC(=O)[C@@H](N)Cc1ccc(O)cc1)C(=O)N[C@@H](Cc1ccccc1)C(=O)N[C@@H](Cc1c[nH]c2ccccc12)C(N)=O [BCH2208, H-Tyr-D-Nle-Phe-Trp-NH2] (H-Y[dNle]FW-NH2)",,>3,
"CCCC[C@@H](NC(=O)[C@@H](N)Cc1ccc(O)cc1)C(=O)N[C@@H](Cc1ccccc1)C(=O)N[C@@H](Cc1ccc2ccccc2c1)C(N)=O [BCH2211, H-Tyr-D-Nle-Phe-2′-Nal-NH2] (H-Y[dNle]F[2Nal]-NH2)",,>10,
"CCCC[C@@H](NC(=O)[C@@H](N)Cc1ccc(O)cc1)C(=O)N[C@@H](Cc1c[nH]c2ccccc12)C(=O)N[C@@H](Cc1ccccc1)C(N)=O [BCH2212, H-Tyr-D-Nle-Trp-Phe-NH2] (H-Y[dNle]WF-NH2)",,>10,
"C[C@@H](NC(=O)[C@@H](N)Cc1ccc(O)cc1)C(=O)N[C@@H](Cc1c[nH]c2ccccc12)C(=O)N[C@@H](Cc1ccc2ccccc2c1)C(N)=O [BCH2213, H-Tyr-D-Ala-Trp-2′-Nal-NH2] (H-Y[dA]W[2Nal]-NH2)",,>5,
"CCCC[C@@H](NC(=O)[C@@H](N)Cc1ccc(O)cc1)C(=O)N[C@@H](Cc1c[nH]c2ccccc12)C(=O)N[C@@H](Cc1ccc2ccccc2c1)C(N)=O [BCH2214, H-Tyr-D-Nle-Trp-2′-Nal-NH2] (H-Y[dNle]W[2Nal]-NH2)",,15,
"CCCC[C@@H](NC(=O)[C@@H](N)Cc1ccc(O)cc1)C(=O)N[C@@H](Cc1c[nH]c2ccccc12)C(=O)N[C@@H](Cc1c[nH]c2ccccc12)C(N)=O [BCH2217, H-Tyr-D-Nle-Trp-Trp-NH2] (H-Y[dNle]WW-NH2)",,>5,
"CC(C)[C@@H](NC(=O)[C@@H](N)Cc1ccc(O)cc1)C(=O)N[C@@H](Cc1ccccc1)C(=O)N[C@@H](Cc1ccccc1)C(N)=O [BCH2464, H-Tyr-D-Val-Phe-Phe-NH2] (H-Y[dV]FF-NH2)",,>10,
"CC(C)C[C@@H](NC(=O)[C@@H](N)Cc1ccc(O)cc1)C(=O)N[C@@H](Cc1ccccc1)C(=O)N[C@@H](Cc1ccccc1)C(N)=O [BCH2465, H-Tyr-D-Leu-Phe-Phe-NH2] (H-Y[dL]FF-NH2)",,>10,
"CC[C@@H](C)[C@@H](NC(=O)[C@@H](N)Cc1ccc(O)cc1)C(=O)N[C@@H](Cc1ccccc1)C(=O)N[C@@H](Cc1ccccc1)C(N)=O [BCH2473, H-Tyr-D-Ile-Phe-Phe-NH2] (H-Y[dI]FF-NH2)",,>10,
"CC[C@@H](NC(=O)[C@@H](N)Cc1ccc(O)cc1)C(=O)N[C@@H](Cc1ccccc1)C(=O)N[C@@H](Cc1ccccc1)C(N)=O [BCH2577, H-Tyr-D-Abu-Phe-Phe-NH2] (H-Y[dAbu]FF-NH2)",,>10,
"NC(=O)[C@H](Cc1ccccc1)NC(=O)[C@H](Cc1ccccc1)NC(=O)C1(NC(=O)[C@@H](N)Cc2ccc(O)cc2)CCCC1 [BCH2579, H-Tyr-Cle-Phe-Phe-NH2] (H-Y[Ac5c]FF-NH2)",,>10,
"C[C@H](O)[C@@H](NC(=O)[C@@H](N)Cc1ccc(O)cc1)C(=O)N[C@@H](Cc1ccccc1)C(=O)N[C@@H](Cc1ccccc1)C(N)=O [BCH2811, H-Tyr-D-Thr-Phe-Phe-NH2] (H-Y[dT]FF-NH2)",,12,
"C[C@@H](NC(=O)[C@@H](N)Cc1ccc(O)cc1)C(=O)N[C@@H](Cc1ccccc1)C(=O)N[C@@H](CSCc1ccccc1)C(N)=O [BCH3240, H-Tyr-D-Ala-Phe-Cys(Bzl)NH2] (H-Y[dA]FC(Bn)-NH2)",0.0053,,"IC50 (μ receptors; GPI(IC50), Table 1): 0.00916 µM"
"N=C(N)NCCC[C@@H](NC(=O)[C@@H](N)Cc1ccc(O)cc1)C(=O)N[C@@H](Cc1ccccc1)C(=O)N[C@@H](CSCc1ccccc1)C(N)=O [BCH3241, H-Tyr-D-Arg-Phe-Cys(Bzl)NH2] (H-Y[dR]FC(Bn)-NH2)",0.00695,,"IC50 (μ receptors; GPI(IC50), Table 1): 0.033 µM"
H-Tyr-Chl-Phe-Phe-NH2 [BCH2578],,>10,
H-Tyr-∇Ala-Phe-Phe-NH2 [BCH1787],,10,
∇CH2Tyr-D-Ala-Phe-Phe-NH2 [BCH2202],,>10,
